Test results as given in publication PMC12703733, “Probing Guanidino Pendant or Bridged Groups in Cyclic Antimicrobial Peptides Derived from Temporin L: A Strategy to Improve Efficacy against Gram-Negative Bacteria” (Journal of Medicinal Chemistry, 2025).
Where two headings read alike, the source gives them in different places. Bridge positions count the residues as written; N and C are the ends. Square brackets hold non-standard residues; d marks the D form. Peptide text beside a SMILES is read from it.

Legend:
circular dichroism = settings: water; pH ns; 25 °C; 150 uM
[1] = assay type: cell-based, human
Outline: (§1)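 Cells were plated at about 4 × 10^4/well in 2% FBS, then exposed to peptide at 100–3.12 μM in serum-free medium for 2 h or 24 h. Viability was measured by MTT reduction (0.5 mg/mL, 4 h, absorbance 570 nm) relative to untreated cells, as the mean ± SEM of three experiments.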

[2] = system: human keratinocytes (HaCaT cells); assay type: cell-based
Outline: as §1

[3] = assay type: cell-based; settings: Cell viability (%)
Method: (§2) For the evaluation of peptides’ cytotoxicity, the human immortalized keratinocytes (HaCaT cells), purchased from AddexBio (San Diego, CA, USA), and BEAS-2B were used. HaCaT cells were cultured in Dulbecco’s modified Eagle’s medium supplemented with 4 mM glutamine (DMEM), 10% heat-inactivated fetal bovine serum (FBS), and 0.1 mg/mL of penicillin and streptomycin, at 37 °C and 5% CO2. BEAS-2B cells were cultured in RPMI, supplemented with 2 mM glutamine (DMEM), 10% heat-inactivated fetal bovine serum (FBS), 1 mM sodium pyruvate, and 0.1 mg/mL of penicillin and streptomycin, at 37 °C and 5% CO2. Cytotoxicity was tested in vitro using a colorimetric assay that relies on the intracellular reduction of the yellow 3-(4,5-dimethylthiazol-2-yl)-2,5-diphenyltetrazolium bromide salt (MTT) by mitochondrial dehydrogenases of metabolically active cells in formazan crystals (purple). About 4 × 10^4 HaCaT and BEAS-2B cells, suspended in DMEM supplemented with 2% FBS, were plated in triplicate wells of a 96-well microtiter plate. The plate was incubated overnight at 37 °C and 5% CO2. Then, the cells were treated with different concentrations of the peptide (from 100 to 3.12 μM) in a fresh serum-free medium for 2 h and for a longer time (24 h). Following peptide treatment, the medium was removed, and MTT (0.5 mg/mL) solution in Hank’s buffer (136 mM NaCl, 4.2 mM Na2HPO4, 4.4 mM KH2PO4, 5.4 mM KCl, 4.1 mM NaHCO3, pH 7.2, supplemented with 20 mM D-glucose) was added to each well of the plate, that was then incubated for 4 h at 37 °C and 5% CO2. The purple formazan crystals were dissolved using acidified 2-propanol and a microplate reader (Infinite M200; Tecan, Salzburg, Austria) was used to measure the absorbance of each well at 570 nm. The percentage of cell viability was calculated compared to the control, which consisted of cells without any peptide treatment (corresponding to 100% viability) and all data represent the mean of three independent experiments ± SEM.

BEAS-2B cells = assay type: cell-based
Method: as §2

[4] = system: S. aureus ATCC 25923 biofilm; test: Activity against preformed biofilm (MTT); assay type: cell-based; settings: concentrations below 25 μM
Method: (§3) The antibiofilm activity was evaluated as elsewhere reported. Bacteria grew at 37 °C until they reached an optical density (OD) of 0.8 (λ = 590 nm). The culture was diluted to a cell density of 1 × 10^6 colony-forming units (CFUs)/mL and aliquots of 100 μL of this suspension were dispensed into the wells of a 96-multiwell plate. After biofilm formation (incubation time = 20 h at 37 °C), all the planktonic cells were removed, and the wells were washed twice with PBS (150 μL). After washing, the wells were filled with PBS supplemented with different 2-fold serial dilutions of the tested peptides (from 50 to 1.56 μM). After peptide treatment (incubation time = 2 h at 37 °C) the wells were washed with PBS twice and filled with 150 μL of MTT (0.5 mg/mL) to evaluate biofilm viability after 4 h incubation at 37 °C. The reaction was then stopped by adding SDS (final concentration equal to 5% v/v). A microplate reader (Infinite M200; Tecan, Salzburg, Austria) was used to measure the absorbance of each well at 570 nm and the percentage of biofilm viability was calculated relative to the untreated samples.

[5] = assay type: cell-based, P. aeruginosa
Method: as §3

[6] = Circular dichroism in water (BeStSel); assay type: physicochemical; settings: predicted from CD spectra in H2O using BeStSel
Method: The secondary structure of each peptide was studied in solution and in small unilamellar vesicles (SUVs) mimicking Gram-positive and Gram-negative membranes performing CD analysis. The CD spectrum for each peptide in solution was recorded at 150 μM, using the quartz cells of 0.1 cm path length with a Jasco J-1500 CD Spectrometer at 25 °C. SUVs at the concentration of 150 μM (P/L = 1) and […] (P/L = 0.4) were prepared as reported: the lipid film was hydrated with water for 1h and then sonicated for 30 min. CD spectra were recorded at the peptide/lipid ratio of 1:1 both in the presence with SUVs mimicking Gram-positive and Gram-negative membranes. CD spectra were recorded at 25 °C on a in a 0.1 cm quartz cell using three consecutive scans from 260 to 190 nm, 3 nm bandwidth, a time constant of 16 s, and a scan rate of 10 nm/min.

[7] = Method: The fusogenic ability of peptides was studied performing the lipid mixing experiment and evaluating a reduction in the fluorescence energy transfer efficiency between fluorophores 12-(N-methyl-N-(7-nitrobenz-2-oxa-1,3-diazol-4-yl)) (NBD) and Rhodamine (Rho) bound to liposomes. We prepared unlabeled LUVs mimicking Gram-positive and Gram-negative membranes at a concentration of 0.16 mM, and labeled LUVs mimicking Gram-positive and Gram-negative membranes with 0.6% mol of NBD-PE and 0.6% mol of Rho-PE at the concentration of 0.04 mM. LUVs were prepared as described above, and for the experiment, unlabeled and labeled LUVs were mixed at a 1:4 ratio to have final lipid concentration of 0.1 mM. The fusogenic activity of each peptide was evaluated at lipide/peptide ratio of 0.01, 0.03, 0.05, 0.1, 0.2, 0.3, 0.5, and NBD emission at 530 nm and Rho emission at 590 nm were recorded setting an NBD excitation wavelength set at 465 nm.
The percentage of fusion was calculated as a function of 100% value corresponding to complete mixing of LUVs upon the addition of Triton X-100 (0.05% v/v). The percentage fusion was calculated as [F530/F590]peptide−[F530/F590]blank/[F530/F590]triton−[F530/F590]blank×100 where F 530 and F 590 are the fluorescence intensities at 530 and 590 nm calculated in the absence and in the presence of the peptide and Triton X-100.

CC[C@H](C)[C@H](NC(=O)[C@H](CCCNC(=N)N)NC(=O)[C@H]1CCC(=O)NCCCC[C@H](NC(=O)[C@H](Cc2ccccc2)NC(=O)[C@H](Cc2c[nH]c3ccccc23)NC(=O)[C@@H]2CCCN2C(=O)[C@@H](NC(=O)[C@@H](N)Cc2ccccc2)C(C)C)C(=O)N[C@@H](CCCCN)C(=O)N[C@@H](Cc2ccccc2)C(=O)N[C@H](CC(C)C)C(=O)N1)C(=O)N[C@@H](CC(C)C)C(N)=O [Peptide 2, FVPWF[KKFle]RIL] (H-FVPWFKKF[dL][dE]RIL-NH2; lactam 6-10)
helicity (circular dichroism): 7% | CC50 ([1]; CC50): > 50 µM | viability at 3.12 µM ([1]; Cell viability (%)): 102% | viability at 6.25 µM ([1]; Cell viability (%)): 96% | viability at 12.5 µM ([1]; Cell viability (%)): 95% | viability at 25 µM ([1]; Cell viability (%)): 95% | viability at 50 µM ([1]; Cell viability (%)): 64% | Cell viability (%) ([2]; 3.12 µM): 101 ± 2% | Cell viability (%) ([2]; 6.25 µM): 92 ± 2% | Cell viability (%) ([2]; 12.5 µM): 92 ± 1% | Cell viability (%) ([2]; 25 µM): 94 ± 1% | CC50 ([2]; 24 h): 56.4 µM | viability at 6.25 µM [3]: 107% | viability at 12.5 µM [3]: 100% | viability at 25 µM [3]: 91% | viability at 100 µM [3]: 5% | Cell viability (%) (BEAS-2B cells; 3.12 µM): 132% | Cell viability (%) (BEAS-2B cells; 6.25 µM): 119% | Cell viability (%) (BEAS-2B cells; 12.5 µM): 114% | Cell viability (%) (BEAS-2B cells; 25 µM): 102% | Cell viability (%) (BEAS-2B cells; 100 µM): 8% | antibiofilm activity (in words) [4]: weaker or no activity | viability [5]: > 70% | Content in water (%) random [6]: 55% | Content in water (%) α-helix [6]: 7% | Content in water (%) β-strand [6]: 38% | fusion ([7]; LUVs DOPG:CL, P/L ratio of 0.3): 100% | fusion ([7]; LUVs DOPG:DOPE:CL, P/L ratio of 0.5): 75%
